How the values were obtained:
Assay in all cases: relative viability (nuclei count vs DMSO), 5 days (fraction); higher = more cells survive
Saracatinib = compound: CN1CCN(CCOc2cc(OC3CCOCC3)c3c(Nc4c(Cl)ccc5c4OCO5)ncnc3c2)CC1 [Saracatinib]
Summary of the method: (§1)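 Following overnight incubation at 37 °C, lung cancer cell lines in 1536-well plates were pinned with five library-drug doses (not always all listed) in √10 steps on vehicle-anchored plates. The cells then spent 5 days without medium change before a combined fix, permeabilisation and Hoechst stain, 4× imaging and MetaXpress nuclear counts. Viability is the treated-to-vehicle ratio of nuclei, taken as the median across plates. Only plates with control CV below 25% and at least one doubling passed.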

Nilotinib = compound: Cc1cn(-c2cc(NC(=O)c3ccc(C)c(Nc4nccc(-c5cccnc5)n4)c3)cc(C(F)(F)F)c2)cn1 [Nilotinib]
Summary of the method: as §1

Luminespib = compound: CCNC(=O)c1noc(-c2cc(C(C)C)c(O)cc2O)c1-c1ccc(CN2CCOCC2)cc1 [Luminespib]
Summary of the method: as §1

Lenalidomide = compound: Nc1cccc2c1CN(C1CCC(=O)NC1=O)C2=O [Lenalidomide]
Summary of the method: as §1

MIM1 = compound: CC1=CSC(=NC2CCCCC2)N1/N=C/C3=C(C(=C(C=C3)O)O)O [MIM1]
Summary of the method: as §1

| Cell Line | relative viability (Saracatinib; 0.02 µM) | relative viability (Saracatinib; 0.2 µM) | relative viability (Saracatinib; 0.6325 µM) | relative viability (Saracatinib; 2 µM) | relative viability (Nilotinib; 0.001 µM) | relative viability (Nilotinib; 0.003162 µM) | relative viability (Nilotinib; 0.01 µM) | relative viability (Nilotinib; 0.03162 µM) | relative viability (Nilotinib; 0.1 µM) | relative viability (Luminespib; 0.002 µM) | relative viability (Luminespib; 0.006325 µM) | relative viability (Luminespib; 0.01 µM, anchor plate) | relative viability (Luminespib; 0.02 µM) | relative viability (Luminespib; 0.06325 µM) | relative viability (Luminespib; 0.2 µM) | relative viability (Lenalidomide; 0.253 µM) | relative viability (Lenalidomide; 0.8 µM) | relative viability (Lenalidomide; 2.53 µM) | relative viability (Lenalidomide; 8 µM) | relative viability (MIM1; 0.2 µM) | relative viability (MIM1; 0.6325 µM) | relative viability (MIM1; 2 µM) | relative viability (MIM1; 6.325 µM) | relative viability (MIM1; 20 µM) |
| --- | --- | --- | --- | --- | --- | --- | --- | --- | --- | --- | --- | --- | --- | --- | --- | --- | --- | --- | --- | --- | --- | --- | --- | --- |
| EMC-BAC-2 | 0.952 | 0.943 | 0.856 | 0.763 | 0.951 | 0.915 | 0.956 | 0.857 | 0.731 | 1 | 0.553 | 1.18 | 0.648 | 0.665 | 0.302 | 1.15 | 0.863 | 1 | 0.493 | 1.03 | 0.727 | 0.968 | 0.816 | 0.296 |
| SK-MES-1 | 1 | 0.894 | 0.817 | 0.579 | 0.994 | 1.13 | 1.26 | 0.924 | 0.877 | 0.986 | 0.931 | 0.831 | 0.903 | 0.171 | 0.145 | 0.988 | 0.995 | 1.06 | 0.936 | 1.02 | 0.986 | 0.996 | 0.766 | 0.507 |
| ChaGo-K-1 | 0.992 | 0.807 | 1.05 | 0.927 | 0.926 | 1.16 | 1.11 | 0.789 | 0.532 | 1.07 | 1.01 | 0.666 | 0.978 | 0.816 | 0.335 | 0.946 | 1.05 | 1.04 | 1.01 | 0.995 | 0.896 | 0.971 | 0.738 | 0.235 |
| NCI-H1975 | 1.04 | 0.952 | 1.02 | 0.698 | 0.871 | 1 | 0.981 | 0.784 | 0.724 | 0.981 | 0.91 | 0.235 | 0.507 | 0.158 | 0.147 | 1.03 | 0.821 | 1.1 | 0.889 | 0.959 | 0.968 | 0.84 | 0.609 | 0.424 |
| NCI-H358 | 0.938 | 0.822 | 0.568 | 0.409 | 0.831 | 1.18 | 1.12 | 0.836 | 0.776 | 0.966 | 0.887 | 0.352 | 0.512 | 0.115 | 0.111 | 0.908 | 1.01 | 0.893 | 1.08 | 1.01 | 0.953 | 0.86 | 0.429 | 0.237 |
| NCI-H23 | 1.12 | 0.794 | 0.988 | 0.739 | 0.963 | 0.899 | 1.15 | 0.668 | 0.74 | 0.953 | 0.932 | 0.22 | 0.663 | 0.13 | 0.141 | 0.922 | 0.91 | 1.18 | 0.764 | 0.99 | 0.52 | 0.798 | 0.523 | 0.209 |
| NCI-H2085 | 1.02 | 0.893 | 1.09 | 0.967 | 1.03 | 1.06 | 1.12 | 0.91 | 0.754 | 0.964 | 0.931 | 0.466 | 0.779 | 0.576 | 0.384 | 0.975 | 0.811 | 1.06 | 0.944 | 0.995 | 0.974 | 1.02 | 0.817 | 0.947 |
| COR-L23 | 1.05 | 0.856 | 0.905 | 0.975 | 0.877 | 1.34 | 1.2 | 0.704 | 0.768 | 1.14 | 0.913 | 0.672 | 0.925 | 0.091 | 0.0907 | 1.01 | 0.957 | 1.2 | 1.22 | 0.995 | 1.11 | 1.01 | 0.77 | 0.424 |
| RERF-LC-KJ | 1.1 | 0.979 | 1.02 | 0.981 | 0.932 | 1.1 | 1.12 | 0.868 | 0.81 | 0.979 | 0.994 | 1.24 | 0.844 | 0.314 | 0.234 | 1.06 | 0.947 | 1.08 | 0.943 | 0.932 | 0.977 | 0.823 | 0.574 | 0.271 |
| HCC-827 | 1.02 | 0.813 | 0.366 | 0.188 | 1.02 | 1.09 | 1.07 | 1.03 | 1.06 | 1.06 | 1 | 0.647 | 0.984 | 1.03 | 0.235 | 1.04 | 0.99 | 1.05 | 1.1 | 1.01 | 0.994 | 1.03 | 0.367 | 0.39 |
| NCI-H1299 | 1.02 | 0.948 | 1.05 | 1 | 0.939 | 1.08 | 1.15 | 1.02 | 0.966 | 1.03 | 0.95 | – | 1.04 | 0.942 | 0.217 | 1.02 | 0.97 | 1.03 | 1.05 | 0.983 | 0.992 | 0.994 | 1.01 | 0.776 |
| NCI-H727 | 0.874 | 0.765 | 0.863 | 0.612 | 0.787 | – | 0.938 | 0.694 | 0.614 | 0.95 | 0.738 | 0.369 | 0.64 | 0.308 | 0.287 | 0.868 | 0.927 | 0.908 | 0.857 | 0.833 | 0.823 | 0.878 | 0.723 | 0.452 |
| NCI-H1623 | 0.993 | 0.852 | 1.11 | 0.67 | 1.1 | 0.885 | 1.08 | 0.889 | 0.927 | 1.02 | 0.959 | 0.529 | 0.712 | 0.716 | 0.302 | 1.08 | 0.932 | 1.05 | 0.869 | 0.922 | 0.965 | 1.03 | 0.945 | 0.46 |
| HCC-15 | 0.982 | 0.888 | 1.07 | 0.99 | 0.909 | 1.18 | 1.15 | 0.761 | 0.496 | 0.967 | 0.923 | 0.388 | 0.943 | 0.33 | 0.128 | 1.02 | 0.877 | 1.21 | 0.854 | 0.997 | 0.717 | 1.08 | 0.425 | 0.105 |
